Assay results reported in US8796268B2, “Heteroaryls and uses thereof” (Millennium Pharmaceuticals, Inc., priority 2010, dated 2014).

Key:
Format in all cases: biochemical
[1] = biological target: T1, Human PI3K alpha (Homo sapiens, UniProt P42336); test: Human PI3K alpha enzyme assay (HTRF); conditions: concentration not given, b1387 states 1.1 μM for PI3K α and β; for inhibition at 1.1 µM: read-out: p110 alpha Percent Inhibition
T1 construct: His (N); host or cells: SF9 insect cells (baculovirus)

[2] = biological target: T2, Human PI3K delta (Homo sapiens, UniProt O00329); test: Human PI3K delta enzyme assay (HTRF); conditions: concentration not given, b1389 states 1.0 μM for PI3K δ and γ; for inhibition at 1 µM: read-out: p110 delta Percent Inhibition
T2 construct: His (N); host or cells: SF9 insect cells (baculovirus)
In short: (§1)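 Compounds were mixed with 25 uM ATP, then with 3.5 uM di-C8 PI(4,5)P2 and His-tagged PI3K isoform (β 5.25 nM, δ 0.75 nM, γ 5 nM) at pH 7.00. After 30 min at room temperature, EDTA stopped the reaction and PIP3 was measured by HTRF over 1 h.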

[3] = biological target: T3, Human PI3K gamma (Homo sapiens, UniProt P48736); test: Human PI3K gamma enzyme assay (HTRF); conditions: concentration not given, b1389 states 1.0 μM for PI3K δ and γ; for inhibition at 1 µM: read-out: p110 gamma Percent Inhibition
T3 construct: His (N); host or cells: SF9 insect cells (baculovirus)
In short: as §1

[4] = biological target: T4, Human PI3K beta (Homo sapiens, UniProt P42338); test: Human PI3K beta enzyme assay (HTRF); conditions: concentration not given, b1387 states 1.1 μM for PI3K α and β; for inhibition at 1.1 µM: read-out: p110 beta Percent Inhibition
T4 construct: His (N); host or cells: SF9 insect cells (baculovirus)
In short: as §1

T2 sequence (O00329 whole entry): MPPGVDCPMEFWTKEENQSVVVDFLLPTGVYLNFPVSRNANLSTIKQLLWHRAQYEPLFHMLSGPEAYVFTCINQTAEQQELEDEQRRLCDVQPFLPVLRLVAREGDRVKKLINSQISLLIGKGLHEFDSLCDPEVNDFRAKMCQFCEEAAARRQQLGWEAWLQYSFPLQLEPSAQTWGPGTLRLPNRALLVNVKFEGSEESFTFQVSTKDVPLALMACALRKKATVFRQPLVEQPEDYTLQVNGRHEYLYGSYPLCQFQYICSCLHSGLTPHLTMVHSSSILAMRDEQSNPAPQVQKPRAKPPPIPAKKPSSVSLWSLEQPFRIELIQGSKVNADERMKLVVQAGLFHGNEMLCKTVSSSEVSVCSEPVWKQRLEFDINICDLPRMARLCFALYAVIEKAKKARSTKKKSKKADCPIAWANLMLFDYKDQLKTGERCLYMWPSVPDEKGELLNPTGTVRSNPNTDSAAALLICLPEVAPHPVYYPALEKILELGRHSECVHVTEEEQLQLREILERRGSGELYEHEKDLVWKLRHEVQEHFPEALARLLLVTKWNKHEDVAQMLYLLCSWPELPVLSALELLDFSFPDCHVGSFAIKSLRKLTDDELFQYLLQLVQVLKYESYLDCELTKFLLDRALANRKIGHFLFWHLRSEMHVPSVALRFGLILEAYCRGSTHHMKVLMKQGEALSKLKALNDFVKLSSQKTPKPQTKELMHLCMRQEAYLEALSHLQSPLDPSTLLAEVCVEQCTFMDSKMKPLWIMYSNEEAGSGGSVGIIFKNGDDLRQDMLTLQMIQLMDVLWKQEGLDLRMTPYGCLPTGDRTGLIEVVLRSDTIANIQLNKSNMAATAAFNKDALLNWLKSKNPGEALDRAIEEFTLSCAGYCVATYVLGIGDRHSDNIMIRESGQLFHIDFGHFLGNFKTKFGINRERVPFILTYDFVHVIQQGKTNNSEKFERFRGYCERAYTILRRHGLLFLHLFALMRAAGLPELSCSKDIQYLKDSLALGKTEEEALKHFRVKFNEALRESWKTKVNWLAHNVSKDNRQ
T2 sequence (P27986 whole entry partner): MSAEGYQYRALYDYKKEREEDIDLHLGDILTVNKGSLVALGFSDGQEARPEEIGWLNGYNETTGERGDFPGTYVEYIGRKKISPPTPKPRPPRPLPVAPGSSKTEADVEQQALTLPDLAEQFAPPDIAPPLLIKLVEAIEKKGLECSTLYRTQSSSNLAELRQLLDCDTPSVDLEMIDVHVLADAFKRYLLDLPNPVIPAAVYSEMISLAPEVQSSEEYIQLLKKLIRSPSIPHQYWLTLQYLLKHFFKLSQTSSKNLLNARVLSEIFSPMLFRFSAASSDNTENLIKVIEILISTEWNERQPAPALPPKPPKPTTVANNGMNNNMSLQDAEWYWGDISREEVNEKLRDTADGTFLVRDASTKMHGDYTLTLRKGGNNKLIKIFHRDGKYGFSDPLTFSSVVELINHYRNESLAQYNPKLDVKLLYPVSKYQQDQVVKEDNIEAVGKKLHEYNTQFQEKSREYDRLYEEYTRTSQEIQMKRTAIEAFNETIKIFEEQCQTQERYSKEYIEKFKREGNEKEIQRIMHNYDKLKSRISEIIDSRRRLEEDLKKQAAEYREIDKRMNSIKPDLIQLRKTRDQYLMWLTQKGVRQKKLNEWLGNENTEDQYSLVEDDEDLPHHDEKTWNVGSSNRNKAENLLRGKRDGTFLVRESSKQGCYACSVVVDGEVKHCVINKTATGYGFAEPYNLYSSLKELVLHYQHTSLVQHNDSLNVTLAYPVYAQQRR
T3 sequence (P48736 whole entry): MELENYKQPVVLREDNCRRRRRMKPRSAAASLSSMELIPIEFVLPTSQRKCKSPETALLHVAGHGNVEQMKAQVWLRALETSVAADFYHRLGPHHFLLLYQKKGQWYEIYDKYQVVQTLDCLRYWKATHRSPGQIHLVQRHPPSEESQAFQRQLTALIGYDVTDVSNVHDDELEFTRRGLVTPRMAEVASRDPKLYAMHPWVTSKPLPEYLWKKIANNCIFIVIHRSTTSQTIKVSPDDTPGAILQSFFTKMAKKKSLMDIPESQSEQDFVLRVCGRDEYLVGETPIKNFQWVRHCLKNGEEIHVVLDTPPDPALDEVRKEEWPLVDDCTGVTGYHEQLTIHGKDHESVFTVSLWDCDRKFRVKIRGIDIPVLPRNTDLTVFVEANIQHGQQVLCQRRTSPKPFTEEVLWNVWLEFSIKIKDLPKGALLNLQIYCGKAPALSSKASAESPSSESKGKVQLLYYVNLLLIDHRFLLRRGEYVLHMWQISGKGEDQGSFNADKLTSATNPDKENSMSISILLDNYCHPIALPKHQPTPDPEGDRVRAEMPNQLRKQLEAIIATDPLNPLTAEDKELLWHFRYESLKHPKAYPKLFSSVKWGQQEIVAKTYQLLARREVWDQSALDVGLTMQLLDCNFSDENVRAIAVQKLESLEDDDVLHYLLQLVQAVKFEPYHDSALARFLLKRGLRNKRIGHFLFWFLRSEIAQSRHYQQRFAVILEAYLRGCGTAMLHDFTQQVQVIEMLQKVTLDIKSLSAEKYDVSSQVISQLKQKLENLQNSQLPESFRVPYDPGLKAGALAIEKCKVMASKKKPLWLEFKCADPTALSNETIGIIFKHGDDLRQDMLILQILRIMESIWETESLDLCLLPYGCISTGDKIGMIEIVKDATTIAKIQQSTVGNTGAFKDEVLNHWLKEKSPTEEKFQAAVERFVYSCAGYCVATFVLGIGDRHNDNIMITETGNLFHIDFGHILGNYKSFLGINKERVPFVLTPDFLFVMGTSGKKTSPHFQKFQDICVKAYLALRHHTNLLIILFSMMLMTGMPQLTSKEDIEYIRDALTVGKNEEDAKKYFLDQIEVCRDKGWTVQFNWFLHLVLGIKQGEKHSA
T1 sequence (P42336 whole entry): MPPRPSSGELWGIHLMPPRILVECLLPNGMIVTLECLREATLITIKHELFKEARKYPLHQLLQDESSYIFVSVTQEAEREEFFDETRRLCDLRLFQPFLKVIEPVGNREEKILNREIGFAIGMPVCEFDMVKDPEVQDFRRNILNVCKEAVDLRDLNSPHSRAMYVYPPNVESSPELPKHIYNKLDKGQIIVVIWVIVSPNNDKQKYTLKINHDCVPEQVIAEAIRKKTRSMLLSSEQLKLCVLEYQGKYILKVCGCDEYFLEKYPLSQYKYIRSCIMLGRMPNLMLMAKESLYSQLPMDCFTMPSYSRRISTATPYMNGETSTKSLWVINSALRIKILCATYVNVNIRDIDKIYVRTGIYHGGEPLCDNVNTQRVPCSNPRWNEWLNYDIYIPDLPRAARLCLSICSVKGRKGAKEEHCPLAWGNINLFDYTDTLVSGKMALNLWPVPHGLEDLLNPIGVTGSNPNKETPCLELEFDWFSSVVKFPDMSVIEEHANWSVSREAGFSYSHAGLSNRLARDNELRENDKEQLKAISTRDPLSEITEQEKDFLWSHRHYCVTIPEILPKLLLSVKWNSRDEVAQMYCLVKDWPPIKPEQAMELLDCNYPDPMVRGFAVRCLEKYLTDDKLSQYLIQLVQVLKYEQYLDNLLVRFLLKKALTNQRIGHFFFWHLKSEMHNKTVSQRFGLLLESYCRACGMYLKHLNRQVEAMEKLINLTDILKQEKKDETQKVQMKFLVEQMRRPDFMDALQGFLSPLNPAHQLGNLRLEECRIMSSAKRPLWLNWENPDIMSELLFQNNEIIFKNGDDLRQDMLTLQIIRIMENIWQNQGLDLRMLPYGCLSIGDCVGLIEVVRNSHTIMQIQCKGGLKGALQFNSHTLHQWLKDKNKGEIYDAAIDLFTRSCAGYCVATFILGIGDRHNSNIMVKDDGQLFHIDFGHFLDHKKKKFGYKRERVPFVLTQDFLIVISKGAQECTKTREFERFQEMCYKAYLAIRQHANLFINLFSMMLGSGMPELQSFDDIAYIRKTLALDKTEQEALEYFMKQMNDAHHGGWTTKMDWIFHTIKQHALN
T1 sequence (P27986 whole entry partner): as the sequence (P27986 whole entry partner) above
T4 sequence (P42338 whole entry): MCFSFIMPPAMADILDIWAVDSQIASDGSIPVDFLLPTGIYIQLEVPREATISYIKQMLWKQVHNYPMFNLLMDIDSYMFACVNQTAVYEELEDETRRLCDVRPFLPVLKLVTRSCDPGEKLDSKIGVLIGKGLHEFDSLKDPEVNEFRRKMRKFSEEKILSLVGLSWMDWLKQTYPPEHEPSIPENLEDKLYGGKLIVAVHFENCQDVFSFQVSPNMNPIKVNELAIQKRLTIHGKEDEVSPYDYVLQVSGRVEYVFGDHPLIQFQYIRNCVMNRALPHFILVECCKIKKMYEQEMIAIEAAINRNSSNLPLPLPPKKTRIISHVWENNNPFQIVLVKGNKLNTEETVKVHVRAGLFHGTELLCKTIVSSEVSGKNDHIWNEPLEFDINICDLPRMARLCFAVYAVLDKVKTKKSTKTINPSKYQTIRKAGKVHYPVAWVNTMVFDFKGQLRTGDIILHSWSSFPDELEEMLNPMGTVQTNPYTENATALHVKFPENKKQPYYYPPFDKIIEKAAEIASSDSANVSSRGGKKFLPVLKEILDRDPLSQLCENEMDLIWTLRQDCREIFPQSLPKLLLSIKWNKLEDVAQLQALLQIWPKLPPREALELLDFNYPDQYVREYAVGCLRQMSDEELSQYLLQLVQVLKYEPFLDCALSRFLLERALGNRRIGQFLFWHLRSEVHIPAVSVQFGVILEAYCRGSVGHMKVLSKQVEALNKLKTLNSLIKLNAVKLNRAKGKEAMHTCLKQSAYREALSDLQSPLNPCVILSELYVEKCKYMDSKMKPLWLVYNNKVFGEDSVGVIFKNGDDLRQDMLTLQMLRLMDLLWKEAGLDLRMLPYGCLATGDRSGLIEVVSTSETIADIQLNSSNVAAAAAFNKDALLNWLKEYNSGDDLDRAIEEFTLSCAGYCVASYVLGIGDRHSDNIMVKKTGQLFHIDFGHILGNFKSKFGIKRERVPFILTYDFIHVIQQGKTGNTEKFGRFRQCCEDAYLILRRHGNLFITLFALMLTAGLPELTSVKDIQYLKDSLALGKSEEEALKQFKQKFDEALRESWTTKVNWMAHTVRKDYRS
T4 sequence (P27986 whole entry partner): as the sequence (P27986 whole entry partner) above

Structure (SMILES) | inhibition at 1.1 µM [1] | inhibition at 1 µM [2] | inhibition at 1 µM [3] | inhibition at 1.1 µM [4] | p110 alpha Percent Inhibition [1] | p110 delta Percent Inhibition [2] | p110 gamma Percent Inhibition [3] | p110 beta Percent Inhibition [4]
COc1cccc(F)c1C(O)c1cc(-c2ccncc2)sc1-c1nnc[nH]1 (stereo not drawn) [Compound 239] | 30% | 41% | 27% | 68% |  |  |  | 
CC(=O)Nc1cc(-c2cc(C(NCC3CCCC3)c3ccc(Cl)cc3)c(-c3nnc[nH]3)s2)ccn1 (stereo not drawn) [Compound 240] | 52% | 98% | 8% | 79% |  |  |  | 
CC(=O)Nc1cc(-c2cc(C(OC[C@@H]3CCCN3)c3ccc(Cl)cc3)c(-c3nnc[nH]3)s2)ccn1 (stereo partly drawn) [Compound 242] | 81% | 112% | 36% | 104% |  |  |  | 
CCN(CC)C(c1ccc(Cl)cc1)c1cc(-c2ccnc(Cl)c2)sc1-c1nnc[nH]1 (stereo not drawn) [Compound 243] | 12% | 45% | 4% | 66% |  |  |  | 
CC(=O)Nc1cc(-c2cc(C(NC(C)C)c3ccc(Cl)cc3)c(-c3nnc[nH]3)s2)ccn1 (stereo not drawn) [Compound 244] | 77% | 101% | 14% | 101% |  |  |  | 
COc1ccc(C(O)c2cc(-c3ccncc3)sc2-c2nnc[nH]2)cc1OC (stereo not drawn) [Compound 246] | 15% | 43% | 8% | 81% |  |  |  | 
CC(=O)Nc1cc(-c2cc(C(c3ccc(Cl)cc3)N3CC4(COC4)C3)c(-c3nnc[nH]3)s2)ccn1 (stereo not drawn) [Compound 247] | 83% | 104% | 21% | 105% |  |  |  | 
CC(=O)Nc1cc(-c2cc(C(c3ccc(Cl)cc3)N3CCOCC3)c(-c3nnc[nH]3)s2)ccn1 (stereo not drawn) [Compound 248] | 89% | 109% | 35% | 106% |  |  |  | 
Clc1ccc(C(c2cc(-c3ccnc(Cl)c3)sc2-c2nnc[nH]2)N2CCC2)cc1 (stereo not drawn) [Compound 251] | 14% | 44% | 12% | 96% |  |  |  | 
OC(c1ccc(-c2ncccn2)cc1)c1cc(-c2ccncc2)sc1-c1nnc[nH]1 (stereo not drawn) [Compound 252] | 58% | 60% | 12% | 85% |  |  |  | 
Nc1cc(-c2cc(C(c3ccc(Cl)cc3)N3CCNCC3)c(-c3nnc[nH]3)s2)ccn1 (stereo not drawn) [Compound 254] | 49% | 91% | 8% | 96% |  |  |  | 
NCc1c[nH]c(-c2sc(-c3ccncc3)nc2Cc2ccc(Cl)cc2)n1 [Compound 255, (2-(4-(4-chlorobenzyl)-2-(pyridin-4-yl)thiazol-5-yl)-1H-imidazol-4-yl)methanamine] |  |  |  |  | 0% | 39% | 5% | 55%
OC(c1ccc2c(c1)OCO2)c1cc(-c2ccncc2)sc1-c1nnc[nH]1 (stereo not drawn) [Compound 256] | 25% | 57% | 8% | 87% |  |  |  | 
OC(c1ccc2ncccc2c1)c1cc(-c2ccncc2)sc1-c1nnc[nH]1 (stereo not drawn) [Compound 257] | 31% | 68% | 30% | 97% |  |  |  | 
OC(c1cccc(-c2ccncc2)c1)c1cc(-c2ccncc2)sc1-c1nnc[nH]1 (stereo not drawn) [Compound 258] | 18% | 47% | 13% | 86% |  |  |  | 
OC(c1ccc(Br)o1)c1cc(-c2ccncc2)sc1-c1nnc[nH]1 (stereo not drawn) [Compound 260] | 37% | 37% | 6% | 74% |  |  |  | 
O=C(O)c1cc(-c2sc(-c3ccncc3)nc2Cc2ccc(Cl)cc2)[nH]n1 [Compound 262, 5-(4-(4-chlorobenzyl)-2-(pyridin-4-yl)thiazol-5-yl)-1H-pyrazole-3-carboxylic acid] | 0% | 12% | 4% | 69% |  |  |  | 
OC(c1cnc2ccccc2n1)c1cc(-c2ccncc2)sc1-c1nnc[nH]1 (stereo not drawn) [Compound 263] | 48% | 84% | 43% | 105% |  |  |  | 
COc1ccc(C(O)c2cc(-c3ccncc3)sc2-c2nnc[nH]2)c(F)c1 (stereo not drawn) [Compound 264] | 32% | 100% | 28% | 99% |  |  |  | 
COc1cc(C(O)c2cc(-c3ccnc(C)c3)sc2-c2nnc[nH]2)c(F)cc1Cl (stereo not drawn) [Compound 265] |  |  |  |  | 64% | 111% | 64% | 109%

Structure (SMILES) | inhibition at 1.1 µM [1] | inhibition at 1 µM [2] | inhibition at 1 µM [3] | inhibition at 1.1 µM [4] | p110 alpha Percent Inhibition [1] | p110 delta Percent Inhibition [2] | p110 gamma Percent Inhibition [3] | p110 beta Percent Inhibition [4]
OC(c1cc(F)ccc1F)c1cc(-c2ccncc2)sc1-c1nnc[nH]1 (stereo not drawn) [Compound 266] | 36% | 52% | 8% | 90% |  |  |  | 
CC(=O)Nc1cc(-c2cc(C(c3ccc(Cl)cc3)N3CCN(C)CC3)c(-c3nnc[nH]3)s2)ccn1 (stereo not drawn) [Compound 267] | 100% | 111% | 43% | 113% |  |  |  | 
CC(=O)Nc1cc(-c2cc(C(c3ccc(Cl)cc3)N3CCC[C@@H]3CO)c(-c3nnc[nH]3)s2)ccn1 (stereo partly drawn) [Compound 268] | 82% | 102% | 16% | 95% |  |  |  | 
CC(=O)Nc1cc(-c2cc(C(c3ccc(Cl)cc3)N3CC[C@H](CO)C3)c(-c3nnc[nH]3)s2)ccn1 (stereo partly drawn) [Compound 269] | 72% | 101% | 15% | 100% |  |  |  | 
CC(=O)Nc1cc(-c2cc(C(c3ccc(Cl)cc3)N3CC(CCN)C3)c(-c3nnc[nH]3)s2)ccn1 (stereo not drawn) [Compound 270] | 81% | 111% | 24% | 114% |  |  |  | 
Cc1ccc(C(O)c2cc(-c3ccncc3)sc2-c2nnc[nH]2)s1 (stereo not drawn) [Compound 271] | 35% | 63% | 8% | 82% |  |  |  | 
COc1ccc(C(O)c2cc(-c3ccncc3)sc2-c2nnc[nH]2)cn1 (stereo not drawn) [Compound 272] | 70% | 70% | 10% | 96% |  |  |  | 
CC(=O)Nc1cc(-c2cc(C(O)(C3=CCOCC3)c3ccc(Cl)cc3)c(-c3nnc[nH]3)s2)ccn1 (stereo not drawn) [Compound 273] | 88% | 98% | 7% | 73% |  |  |  | 
CC(=O)Nc1cc(-c2cc(C(c3ccc(Cl)cc3)N(C)C3CNC3)c(-c3nnc[nH]3)s2)ccn1 (stereo not drawn) [Compound 274] | 98% | 107% | 38% | 109% |  |  |  | 
OC(c1cc(-c2ccncc2)sc1-c1nnc[nH]1)c1c(F)cccc1Cl (stereo not drawn) [Compound 275] | 17% | 44% | 14% | 47% |  |  |  | 
OC(c1ccccc1-c1cccnc1)c1cc(-c2ccncc2)sc1-c1nnc[nH]1 (stereo not drawn) [Compound 276] | 4% | 12% | 6% | 15% |  |  |  | 
CC(=O)Nc1cc(-c2cc(C(c3ccc(Cl)cc3)N(C)C3CNC3)c(-c3nnc[nH]3)s2)ccn1 (stereo not drawn) [Compound 277] |  |  |  |  | 95% | 116% | 55% | 97%
COc1cc(C(O)c2cc(-c3ccnc(Cl)c3)sc2-c2nnc[nH]2)c(F)cc1Cl (stereo not drawn) [Compound 278] |  |  |  | 98% | 23% | 83% | 35% | 
COc1cc(C(O)c2cc(-c3ccncc3)sc2-c2nnc[nH]2)c(F)cc1Cl (stereo not drawn) [Compound 279] | 19% | 78% | 42% | 106% |  |  |  | 
OC(c1ccc2ccccc2c1)c1cc(-c2ccncc2)sc1-c1nnc[nH]1 (stereo not drawn) [Compound 280] | 35% | 92% | 34% | 106% |  |  |  | 
OC(c1cc(-c2ccncc2)sc1-c1nnc[nH]1)c1c(F)ccc2ccccc12 (stereo not drawn) [Compound 281] |  |  |  | 96% | 52% | 97% | 56% | 
COc1cc(C(O)c2cc(-c3ccnnc3)sc2-c2nnc[nH]2)c(F)cc1Cl (stereo not drawn) [Compound 282] | 14% |  |  | 99% |  | 64% | 21% | 
OC(c1cc2ccccc2cc1F)c1cc(-c2ccncc2)sc1-c1nnc[nH]1 (stereo not drawn) [Compound 284] |  |  |  |  | 39% | 110% | 66% | 114%
COc1cc(C(O)c2cc(-c3ccnc(C)c3)sc2-c2nnc[nH]2)c(F)cc1Cl (stereo not drawn) [Compound 285] |  |  |  |  | 16% | 77% | 18% | 83%
